Bounds are passed on as bounds.

This note sets out measurements from patent US20240043435A1, “TYK-2 INHIBITOR” (BEIGENE, LTD., priority 2020, published 2024).

For assay [1], the target named is T1, TYK2-JH2 (aa 575-869, in-house) protein (Homo sapiens, UniProt P29597).
T1 construct: TYK2-JH2 (aa 575-869, in-house) protein; made in house
The assay is described as follows: TYK2-JH2 biochemical assay (HTRF probe displacement). It counts as binding. Conditions: Biochemical assay; read-out: TYK2-JH2 IC50. The method, boiled down: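 HTRF probe-displacement format: compound dilutions (10 points, 5-fold, from 500 uM in DMSO at 500×) were combined with 0.2 nM TYK2-JH2 protein for 0.5 h at room temperature in HEPES pH 7.5 buffer with MgCl2, BSA, DTT and Brij-35. Percent inhibition came from the 615/665 nm fluorescence ratio, fitted to a four-parameter logistic for IC50.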
(In general: TR-FRET usually uses a lanthanide donor and a delayed reading to cut background.)

The test system of assay [2] is JAK2, TYK2/p-STAT4 (Tyr693) activated by IL-12 in NK-92 cell line. The assay can be described thus: IL-12-JAK2, TYK2/p-STAT4 (Tyr693) inhibition IC50 cellular assay. It counts as cell-based. Conditions: for IC50: NK92, Cellular assay, read-out: pSTAT4/IL-12 IC50; for Selectivity fold (TYK2/JAK2): Cellular assay, pSTAT5/GM-CSF IC50 vs pSTAT4/IL-12 IC50. An outline of the steps:
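p-STAT4 (Tyr693) in lysates was measured by AlphaLISA SureFire Ultra after a 30 min IL-12 challenge (40 ng/ml final) at 37° C. Overnight-starved, IL-2-free NK-92 cells had been pretreated 1 h with compound at 10000 to 0.61 nM (4-fold, 8 points). IC50 values came from four-parameter logistic fitting.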

The test system of a further assay is pSTAT5/GM-CSF. The assay can be described thus: pSTAT5/GM-CSF cellular assay (JAK2 selectivity). The following applies: for Selectivity fold (TYK2/JAK2): pSTAT5/GM-CSF IC50 over pSTAT4/IL-12 IC50. It counts as cell-based.

T1 sequence (P29597 575-869): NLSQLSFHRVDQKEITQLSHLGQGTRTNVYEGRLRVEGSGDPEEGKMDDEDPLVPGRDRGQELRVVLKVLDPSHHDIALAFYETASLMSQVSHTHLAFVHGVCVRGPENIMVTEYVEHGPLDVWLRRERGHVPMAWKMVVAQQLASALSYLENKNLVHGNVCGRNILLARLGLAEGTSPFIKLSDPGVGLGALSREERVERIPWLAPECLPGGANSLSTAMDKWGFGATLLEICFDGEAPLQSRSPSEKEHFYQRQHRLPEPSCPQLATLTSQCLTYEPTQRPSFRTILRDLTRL

As for `COc1cc(Nc2cc(NC(C)=O)ncc2-c2ccn(C)n2)nc(S(C)(=O)=O)c1` [Example J21, N-(4-((4-methoxy-6-(methylsulfonyl)pyridin-2-yl)amino)-5-(1-methyl-1H-pyrazol-3-yl)pyridin-2-yl)acetamide], the IC50 in assay [1] is 0.017 nM; in assay [2] it was 0.72 nM; in the assay with pSTAT5/GM-CSF, > 10000 nM. Further, the “Selectivity fold (TYK2/JAK2)” value in the assay with pSTAT5/GM-CSF was >13888 fold.
In the case of `CC(=O)Nc1cc(Nc2cc(O[C@H]3C[C@H](O)C3)cc(S(C)(=O)=O)n2)c(-c2ccn(C)n2)cn1` [Example J16, N-(4-((4-((trans)-3-hydroxycyclobutoxy)-6-(methylsulfonyl)pyridin-2-yl)amino)-5-(1-methyl-1H-pyrazol-3-yl)pyridin-2-yl)acetamde], the values for the IC50 (in assay [1]; in assay [2]; with pSTAT5/GM-CSF) were 0.015 nM, 2.52 nM and > 10000 nM, respectively. Moreover, in the assay on pSTAT5/GM-CSF, the “Selectivity fold (TYK2/JAK2)” value is >3968 fold.
With `CCS(=O)(=O)c1cc(OC(C)C)cc(Nc2cc(NC(C)=O)ncc2-c2ccn(C)n2)n1` [Example J53, N-(4-((6-(ethylsulfonyl)-4-isopropoxypyridin-2-yl)amino)-5-(1-methyl-1H-pyrazol-3-yl)pyridin-2-yl)acetamide], the values for the IC50 (in assay [1]; in assay [2]; in the assay with pSTAT5/GM-CSF) were 0.033 nM, 3.47 nM and > 10000 nM, respectively. Besides, the “Selectivity fold (TYK2/JAK2)” value with pSTAT5/GM-CSF was >2881 fold.
For the molecule `CC(=O)Nc1cc(Nc2cc(OCC3CC3)cc(S(C)(=O)=O)c2)c(-c2ccc(N3C[C@@H](C)O[C@@H](C)C3)cn2)cn1` [Example C6, N-(4′-((3-(cyclopropylmethoxy)-5-(methylsulfonyl)phenyl)amino)-5-((cis)-2,6-dimethylmorpholino)-[2,3′-bipyridin]-6′-yl)acetamide], the IC50 in assay [1] is 0.054 nM; in assay [2], 26 nM; with pSTAT5/GM-CSF, > 10000 nM. Besides, in assay [2], the “Selectivity fold (TYK2/JAK2)” value is >381 fold.
For `CC(=O)Nc1cc(Nc2cc(Cl)cc(S(C)(=O)=O)n2)c(-c2ccn(C)n2)cn1` [Example J40, N-(4-((4-chloro-6-(methylsulfonyl)pyridin-2-yl)amino)-5-(1-methyl-1H-pyrazol-3-yl)pyridin-2-yl)acetamide], the IC50 in assay [1] is 0.029 nM; in assay [2] it was 0.326 nM; with pSTAT5/GM-CSF, > 10000 nM. Moreover, the “Selectivity fold (TYK2/JAK2)” value in the assay on pSTAT5/GM-CSF is >30674 fold.
Regarding `CCn1ccc(-c2cnc(NC(C)=O)cc2Nc2cccc(S(C)(=O)=O)n2)n1` [Example M5, N-(5-(1-ethyl-1H-pyrazol-3-yl)-4-((6-(methylsulfonyl)pyridin-2-yl)amino)pyridin-2-yl)acetamide], the IC50 in assay [1] was 0.032 nM; in assay [2], 0.189 nM; in the assay with pSTAT5/GM-CSF it was 1550 nM. Besides, the “Selectivity fold (TYK2/JAK2)” value in the assay with pSTAT5/GM-CSF worked out at 8206 fold.
For `CC(=O)Nc1cc(Nc2cccc(S(C)(=O)=O)n2)c(-c2ccc(C(C)(C)O)cn2)cn1` [Example H5, N-(5-(2-hydroxypropan-2-yl)-4′-((6-(methylsulfonyl)pyridin-2-yl)amino)-[2,3′-bipyridin]-6′-yl)acetamide], the IC50 worked out at 0.015 nM in assay [1], 0.323 nM in assay [2] and 1680 nM in the assay on pSTAT5/GM-CSF. The “Selectivity fold (TYK2/JAK2)” value in assay [2] turned out to be 5185 fold.
On to `CC(=O)Nc1cc(Nc2cc(OC(C)C)cc(S(C)(=O)=O)n2)c(-c2ccn(C3CC3)n2)cn1` [Example M2, N-(5-(1-cyclopropyl-1H-pyrazol-3-yl)-4-((4-isopropoxy-6-(methylsulfonyl)pyridin-2-yl)amino)pyridin-2-yl)acetamide], for which the IC50 in assay [1] was 0.032 nM; in assay [2] it was 1.04 nM; with pSTAT5/GM-CSF, > 10000 nM. The “Selectivity fold (TYK2/JAK2)” value in the assay on pSTAT5/GM-CSF is >9615 fold.
Consider `CC(=O)Nc1cc(Nc2cccc(S(C)(=O)=O)n2)c(-c2ccc(OC3CCOC3)cn2)cn1` (stereo not shown) [Example B23, N-(4′-((6-(methylsulfonyl)pyridin-2-yl)amino)-5-((tetrahydrofuran-3-yl)oxy)-[2,3′-bipyridin]-6′-yl)acetamide], for which the figures for the IC50 (in assay [1]; in assay [2]; in the assay on pSTAT5/GM-CSF) were 0.04 nM, 0.307 nM and 1000 nM, respectively. For the same molecule, the “Selectivity fold (TYK2/JAK2)” value in assay [2] is recorded as 3260 fold.
As to `CC(=O)Nc1cc(Nc2nc(S(C)(=O)=O)ccc2OC(F)F)c(-c2ccn(C)n2)cn1` [Example J63, N-(4-((3-(difluoromethoxy)-6-(methylsulfonyl)pyridin-2-yl)amino)-5-(1-methyl-1H-pyrazol-3-yl)pyridin-2-yl)acetamide], the results for the IC50 (in assay [1]; in assay [2]; in the assay with pSTAT5/GM-CSF) were 0.018 nM, 0.462 nM and > 10000 nM, respectively. The “Selectivity fold (TYK2/JAK2)” value in the assay with pSTAT5/GM-CSF was >21645 fold.
For `CC(=O)Nc1cc(Nc2cccc(S(=O)(=O)C3CC3)n2)c(-c2ccn(C)n2)cn1` [Example J28, N-(4-((6-(cyclopropylsulfonyl)py-ridin-2-yl)amino)-5-(1-methyl-1H-pyrazol-3-yl)pyridin-2-yl)acetamide], the figures for the IC50 (in assay [1]; in assay [2]; in the assay with pSTAT5/GM-CSF) were 0.053 nM, 3.14 nM and > 10000 nM, respectively. For the same molecule, the “Selectivity fold (TYK2/JAK2)” value in the assay on pSTAT5/GM-CSF is given as >3184 fold.
Take `CC(=O)Nc1cc(Nc2cc(OCCO)cc(S(C)(=O)=O)n2)c(-c2ccn(C)n2)cn1` [Example J15, N-(4-((4-(2-hydroxyethoxy)-6-(methylsulfonyl)pyridin-2-yl)amino)-5-(1-methyl-1H-pyrazol-3-yl)pyridin-2-yl)acetamide]: the IC50 is 0.016 nM in assay [1], 5.9 nM in assay [2] and > 10000 nM in the assay with pSTAT5/GM-CSF. Further, in the assay on pSTAT5/GM-CSF, the “Selectivity fold (TYK2/JAK2)” value was >1694 fold.
Regarding `CC(=O)Nc1cc(Nc2cc(N3CCOC[C@@H]3C)cc(S(C)(=O)=O)n2)c(-c2ccc3c(n2)OCC(C)(C)O3)cn1` [Example Q35, (S)—N-(5-(2,2-dimethyl-2,3-dihydro-[1,4]dioxino[2,3-b]pyridin-6-yl)-4-((4-(3-methyl-morpholino)-6-(methylsulfonyl)pyridin-2-yl)amino)-pyridin-2-yl)acetamide], the IC50 in assay [1] was determined as 0.02 nM; in assay [2] it was 0.679 nM; with pSTAT5/GM-CSF it was 1810 nM. In addition, the “Selectivity fold (TYK2/JAK2)” value in the assay on pSTAT5/GM-CSF stood at 2665 fold.
As for `COC1CC(Oc2cc(Nc3cc(NC(C)=O)ncc3-c3ccn(C)n3)nc(S(C)(=O)=O)c2)C1` (stereo not shown) [Example J18, N-(4-((4-(3-methoxycyclobutoxy)-6-(methylsulfonyl)pyridin-2-yl)amino)-5-(1-methyl-1H-pyrazol-3-yl)pyridin-2-yl)acetamide], the IC50 is 0.028 nM in assay [1], 0.399 nM in assay [2] and > 10000 nM in the assay on pSTAT5/GM-CSF. Also, the “Selectivity fold (TYK2/JAK2)” value in the assay with pSTAT5/GM-CSF is recorded as >25062 fold.
Turning to `COc1ccncc1-c1cc(Nc2cc(NC(C)=O)ncc2-c2ccc3c(n2)OCC(C)(C)O3)nc(S(C)(=O)=O)c1` [Example Q101, N-(5-(2,2-dimethyl-2,3-dihydro-[1,4]dioxino[2,3-b]pyridin-6-yl)-4-((4-methoxy-6′-(methylsulfonyl)-[3,4′-bipyridin]-2′-yl)amino)pyridin-2-yl)acetamide], the values for the IC50 (in assay [1]; in assay [2]; in the assay on pSTAT5/GM-CSF) were 0.03 nM, 0.904 nM and 373 nM, respectively. Besides, the “Selectivity fold (TYK2/JAK2)” value with pSTAT5/GM-CSF is recorded as 412 fold.
On to `CC(=O)Nc1cc(Nc2cc(OC(C)C)cc(S(C)(=O)=O)c2)c(-c2ccn(C(C)C)n2)cn1` [Example M26, N-(4-((3-isopropoxy-5-(methylsulfonyl)phenyl)amino)-5-(1-isopropyl-1H-pyrazol-3-yl)pyridin-2-yl)acetamide], for which the IC50 in assay [1] is 0.046 nM; in assay [2] it was 4.33 nM; in the assay on pSTAT5/GM-CSF it was > 10000 nM. Also, the “Selectivity fold (TYK2/JAK2)” value in the assay with pSTAT5/GM-CSF is >2309 fold.
